This assay deals with Enterococcus faecalis OG1RF. Description: MIC by broth microdilution against E. faecalis OG1RF. The format is cell-based. The conditions noted are these: BHI. The procedure: The respective minimum inhibition concentration (MIC) of each COE molecule was determined using a broth microdilution method. Briefly, COEs were diluted via a 2-fold dilution series in 100 μL of either Muller Hinton Broth (MHB) for E. coli and S. aureus or Brain Heart Infusion Broth (BHI) for E. faecalis in a 96-well plate to achieve the desired final concentration. Subsequently, each well was inoculated with 100 μL of 1×10^6 colony forming units (CFU) mL^−1 of the respective microorganism in MHB for E. coli or BHI for E. faecalis to achieve an inoculum density of 5×10^5 CFU mL^−1. The plates were then incubated at 37° C. with shaking (200 rpm) for 18 hrs. […] The results were obtained in triplicate.
The MIC values of COE-D4, COE-D6 and COE-D8 against the reference strain E. coli K12, pathogenic E. coli UT189, and the Gram positive pathogen Enterococcus faecalis OG1RF were determined using a broth microdilution method as described in the general method above. The MICs for E. coli K12 were determined to be 128, 16, and 4 μg mL^−1 for COE-D4, COE-D6, and COE-D8, respectively (FIG. 5a). […] This is not surprising as these two organisms differ in the capsular polysaccharides that they expressed, which are known to hinder the uptake of antimicrobials and mitigate their potency (M. A. Campos, et al., Infect. Immun. 2004, 72, 7107-7114). […]
In general terms: Broth dilution looks for growth in wells or tubes with falling amounts of substance.

Experimental findings from patent US12157713B2, “Conjugated oligoelectrolytes as antimicrobial agents” (Nanyang Technological University, priority 2018, dated 2024) are described below.

A word on the MIC: it is the least concentration at which growth counts as inhibited.

For the molecule `C[N+](C)(C)CCCCCCCCOc1ccc(/C=C/c2ccc(OCCCCCCCC[N+](C)(C)C)cc2)cc1` [COE-D8], the MIC was 4 µg/mL.
